Experimental findings from patent publication US9320274B2, “Synergistic weed control from applications of aminocyclopyrachlor and clopyralid” (Dow AgroSciences LLC, priority 2012, dated 2016) are described below.

The subject of assay [1] is calvary clover (Medicago arabica, MEDAB). Nature of the assay: Field trial, post-emergence foliar application, weed control of calvary clover. It is filed as in vivo. The following applies: 27 days, applied alone. An excerpt: The (a) aminocyclopyrachlor or an agriculturally acceptable salt or ester thereof is mixed with or applied in combination with (b) clopyralid or an agriculturally acceptable salt or ester thereof in an amount sufficient to induce a synergistic herbicidal effect. […] As described in the Herbicide Handbook of the Weed Science Society of America, Ninth Edition, 2007, p. 429, “'synergism' [is] an interaction of two or more factors such that the effect when combined is greater than the predicted effect based on the response to each factor applied separately.” Synergistic in the herbicide context can mean that the use of (a) and (b) as defined above results in an increased weed control effect compared to the weed control effects that are possible with the use of (a) or (b) alone. In some embodiments, the damage or injury to the undesired vegetation caused by the compositions and methods disclosed herein is evaluated using a scale from 0% to 100%, when compared with the untreated control vegetation, wherein 0% indicates no damage to the undesired vegetation and 100% indicates complete destruction of the undesired vegetation. […] 22 (1967) Field trials were conducted with applications made to established grassland with naturally occurring weed populations. The target plants were treated with postemergence foliar applications when they reached three to five inches tall. All treatments were applied using a randomized complete block trial design, with 4 replications per treatment. Treatments consisted of aminocyclopyrachlor in acid form and clopyralid-olamine, each in water and applied alone or in combination. Spray solutions were prepared using an appropriate amount of dilution to form a 2 L aqueous spray solution with active ingredients in single and two way combinations. Formulated compounds were applied to the plant material with a backpack sprayer equipped with 8003 nozzles calibrated to deliver 187 L/ha at a spray height of 18 inches (43 centimeters (cm)) above average plant canopy. […] The results were measured at 7 days and 27 days after the first application of the compositions. […]

Assay [2] deals with buckhorn plantain (Plantago lanceolata, PLALA). As to the kind of experiment: Field trial, post-emergence foliar application, weed control of buckhorn plantain. It is filed as in vivo. The following applies: applied alone. An excerpt: The (a) aminocyclopyrachlor or an agriculturally acceptable salt or ester thereof is mixed with or applied in combination with (b) clopyralid or an agriculturally acceptable salt or ester thereof in an amount sufficient to induce a synergistic herbicidal effect. […] As described in the Herbicide Handbook of the Weed Science Society of America, Ninth Edition, 2007, p. 429, “'synergism' [is] an interaction of two or more factors such that the effect when combined is greater than the predicted effect based on the response to each factor applied separately.” Synergistic in the herbicide context can mean that the use of (a) and (b) as defined above results in an increased weed control effect compared to the weed control effects that are possible with the use of (a) or (b) alone. In some embodiments, the damage or injury to the undesired vegetation caused by the compositions and methods disclosed herein is evaluated using a scale from 0% to 100%, when compared with the untreated control vegetation, wherein 0% indicates no damage to the undesired vegetation and 100% indicates complete destruction of the undesired vegetation. […] 22 (1967) Field trials were conducted with applications made to established grassland with naturally occurring weed populations. The target plants were treated with postemergence foliar applications when they reached three to five inches tall. All treatments were applied using a randomized complete block trial design, with 4 replications per treatment. Treatments consisted of aminocyclopyrachlor in acid form and clopyralid-olamine, each in water and applied alone or in combination. Spray solutions were prepared using an appropriate amount of dilution to form a 2 L aqueous spray solution with active ingredients in single and two way combinations. Formulated compounds were applied to the plant material with a backpack sprayer equipped with 8003 nozzles calibrated to deliver 187 L/ha at a spray height of 18 inches (43 centimeters (cm)) above average plant canopy. The treated plants were buckhorn plantain (Plantago lanceolata, PLALA) and […] clover (Medicago arabica, MEDAB). The treated plots and control plots were rated blind at various intervals after application. Ratings were based on a scale of 0-100%, as discussed above, wherein 0% indicates no damage to the undesired vegetation and 100% indicates complete destruction of the undesired vegetation Colby's equation was used to determine the herbicidal effects expected from the mixtures, as described above. The results were measured at 7 days and 27 days after the first application of the compositions. […] The herbicide tank mix combinations tested, application rates and ratios employed, plant species tested, and results are given below.

Regarding `Nc1nc(C2CC2)nc(C(=O)O)c1Cl` [Aminocyclopyrachlor, 6-amino-5-chloro-2-cyclopropylpyrimidine-4-carboxylic acid], the “Mean % weed control” value in assay [1] (18 g ae/ha) is 27.5%; in assay [2] (7 days, 18 g ae/ha), 18.75%; in assay [2] (27 days, 18 g ae/ha), 22.5%; in assay [2] (27 days, 35 g ae/ha), 35%.

For `O=C(O)c1nc(Cl)ccc1Cl` [Clopyralid-olamine, clopyralid-olamine], the “Mean % weed control” value is given as 13% in assay [1] (35 g ae/ha); 30% in assay [1] (70 g ae/ha); 18% in assay [2] (7 days, 35 g ae/ha); 28% in assay [2] (27 days, 70 g ae/ha).
